{"source": "patent US20240215579A1", "about": "“USE OF ANTI-CLOTTING COMPOUNDS AS RODENTICIDES” (priority 2021, published 2024)", "tested_on": "pest rodents", "experiment": "Pest rodent bait compositions in standard chow: mortality", "format": "in vivo, rats", "excerpt": "The basic bait composition (standard chow) used consisted of 65% maize, 25% oat flakes, […], 3% refined finely granulated sugar, and 1% fine table salt.\nThe Pgp inhibitors were used at the following listed concentration."}
{"molecule": "C[C@@H](c1ncncc1F)[C@](O)(Cn1cncn1)c1ccc(F)cc1F", "note": "[voriconazole]", "values": [{"measurement": "Mortality in words, Pgp inhibitor combined with active clotting inhibitors", "setting": "bait, combination with different active clotting inhibitors", "result": "high mortality"}, {"measurement": "Efficacy as Pgp inhibitor in the context of the invention", "setting": "compared to other Pgp inhibiting substances", "result": "highly effective"}]}
